Data: patent publication US12521362B2, “Agent for treating, preventing, or improving psychiatric and nervous system disorders or symptoms” (TOKYO UNIVERSITY OF SCIENCE FOUNDATION, priority 2019, dated 2026)

Legend:
[1] = system: spatial learning ability in mice; experiment: Morris water maze task (WM); type: in vivo, Male C57BL/6J mice; settings: DSF diet for 4 weeks
Description: To 1 g of an MF diet, 0.8 mg of DSF and 50 mg of sucrose or only 50 mg of sucrose (without DSF) were added to prepare a DSF diet or a control diet, respectively, as a solid diet. Next, the Morris water maze task (WM) was conducted to assess spatial learning ability in mice administered with any of the test drugs. The WM is widely used for assessing spatial learning and memory in mice (Morris, R. G. M., Learning and Motivation: 1981, 12, 239-260). A WM apparatus was a circular pool of 120 cm in diameter, filled with white-colored water and equipped with a submerged platform (PF) on which a mouse was allowed to stand and rest. Mice were allowed to swim from a randomly selected starting point in the pool, and the distance spent swimming before reaching the hidden platform was measured (FIG. 9A). […] Thus, the spatial learning ability can be assessed based on the distance traveled to find the platform. […] The effect of a test drug on spatial memory formation was evaluated from the ratio of time spent exploring the area at each probe trial after the platform was removed from the original location. […] At the WM learning trials, the distance spent swimming before reaching the platform was measured every day to evaluate the effect of each test drug on the spatial learning of the mice. Moreover, the effect of each test drug on the spatial memory formation in the mice was evaluated at the probe trials.

[2] = system: object recognition function in mice; experiment: Novel object location task (NOL), memory retrieval task; type: in vivo, Male C57BL/6J mice; settings: DSF diet (0.8 mg DSF per 1 g diet) for 3 weeks; p<0.05 (FIG. 8)
Description: To 1 g of an MF diet, 0.8 mg of DSF and 50 mg of sucrose or only 50 mg of sucrose (without DSF) were added to prepare a DSF diet or a control diet, respectively, as a solid diet. The novel object location task (NOL) was conducted to assess object recognition function in mice administered with any of the test drugs. The NOL is a test used to evaluate the ability to remember the location of an object (Dix, S. L. & Aggleton, J. P., Behav Brain Res: 1999 March; 99(2): 191-200). Mice were placed in a 33 cm square white box (open field: OF) and allowed to explore the white box freely for 10 minutes every day in the period of 3 days (acclimation). On Day 4, two objects with the same shape were placed in the OF apparatus, and the mice were allowed to learn the locations of the objects (FIG. 8; learning). On Day 5, one of the objects was relocated to a location that was different from the original location during the learning tasks, and the mice were allowed to explore the objects for 5 minutes, and the length of time spent exploring the objects was measured (FIG. 8; memory retrieval task). […] In the NOL memory retrieval task, the length of time spent exploring each object was measured to evaluate the effect of each test drug on the cognitive ability of the mice.

[3] = system: anxiety-like behaviors in mice; experiment: Elevated plus maze (EPM) test of exploration behavior
Source text: An elevated plus maze (EPM) apparatus (FIG. 1) was used to assess anxiety-like behaviors in mice administered with any of the test drugs. The EPM apparatus is a plus-shaped maze apparatus with open and closed arms and is used for assessment of anxiety-like behaviors of animals. Animals administered with a benzodiazepine (BZD) anxiolytic drug are known to increase the ratio of time spent in the open arm and the ratio of open arm entries. The EPM test is the most representative test available as a system for evaluating an anxiolytic drug.
Mice were acclimated to the testing laboratory for 60 minutes, and a prepared test drug was then administered to each mouse at a dose of 0.25 mL/20 g. After the elapse of a predetermined period of time from the administration of the drug, the EPM apparatus was used to quantify exploration behavior of the mouse for 5 minutes. The equations below were used to evaluate the effects of each test drug on exploration behavior in mice. Statistical analysis was performed with Dunnett's multiple comparison test, and a significant difference was considered at P<0.05. Time spent in open arm (%)−Time spent in open arm (sec)/{Time spent in open arm (sec)+Time spent in closed arm (sec)}×100 Open arm entry (%)−Open arm entries (times)/{Open arm entries (times)+Closed arm entries (times)}×100 Total arm entries (times)=Open arm entries (times)+Closed arm entries (times) 2.
Disulfiram was administered intraperitoneally to mice (n=8 per group) at a dose of 20, 40, or 80 mg/kg, and the mice were tested 30 minutes after the administration for their exploration behavior by using the EPM apparatus. As a positive control experiment, diazepam, a BZD anxiolytic drug, was administered subcutaneously to mice at a dose of 1.5 mg/kg (equivalent to the dose used clinically for humans), and the mice were similarly tested for their exploration behavior by using the EPM apparatus. A solution of 2% Tween 80, 10% DMSO, and 88% corn oil was administered intraperitoneally to mice in the solvent control group.
Disulfiram was administered to mice (n=8 per group) at a dose of 40 mg/kg, and the mice were tested 15, 30, 60, or 120 minutes after the administration for their exploration behavior by using the EPM apparatus.
Cyanamide was investigated for the presence of an anxiolytic-like effect. Cyanamide or disulfiram was administered to mice (n=6 per group) at a dose of 80 or 40 mg/kg, respectively, and the mice were tested 30 minutes after the administration for their exploration behavior by using the EPM apparatus.
The iron(III) complex of diethyldithiocarbamate (DDC) (Fe(DDC)3) as a disulfiram (DSF)-related compound was investigated for the presence of an anxiolytic-like effect. Each drug was administered intraperitoneally to mice in the Fe(DDC)3 dose group (n=5) and the DDC dose group (n=4) at a dose of 40 mg/kg. A solution of 2% Tween 80, 10% DMSO, and 88% corn oil was administered intraperitoneally to mice in the solvent control group (n=9). Thirty minutes after the administration, the elevated plus maze test was performed for 5 minutes.
The copper complex of DDC (Cu(DDC)2) as a DSF-related compound was investigated for the presence of an anxiolytic-like effect. Cu(DDC)2 was administered orally to mice (n=4) at a dose of 40 mg/kg. A solution of 2% Tween 80, 10% DMSO, and 88% corn oil was administered orally to mice in the solvent control group (n=4). Sixty minutes after the administration, the elevated plus maze test was performed for 5 minutes.

[4] = system: hyperemotional response and hyperactivity in mice; experiment: Hyperemotional response and hyperactivity after chronic administration; type: in vivo, ICR mice; settings: DSF diet freely for 3 months
Description: To 1 g of an MF diet, 0.8 mg of DSF and 50 mg of sucrose or only 50 mg of sucrose (without DSF) were added to prepare a DSF diet or a control diet, respectively, as a solid diet. ICR mice were allowed to eat the DSF diet (200 mg/day) freely for 3 months to assess hyperemotional response and hyperactivity. Hyperemotional response was evaluated in those mice according to the method of Kelly et al., (Kelly, J. P. et al., Pharmacol. Ther. Vol. 74, No. 3, pp. 299-316, 1997) by individually scoring (A) the response to an object placed in front of the nose, (B) the response to air blown thereon, or (C) the resistance to handling, based on the following criteria of emotional responses: • 0: no response; • 1: interest in the object, or only a slight movement, or easy to handle; • 2: protective or evasive actions against the object, or expression of surprise, or nervous but still easy to handle; • 3: aggressive actions such as biting, or clear expression of surprise, or nervous and difficult to handle; • 4: highly aggressive actions, or expression of surprise with jumping, or quite difficult to handle. The hyperactivity of each mouse was measured over a period of 30 seconds by counting the number of times the mouse crossed the lines that divided the floor of a cage to four areas.

[5] = system: wild-type APP-transfected cells; settings: in vitro, cultured cells; data of Patent Document 3; cited from earlier work
[6] = system: mouse models of depression (SDS models); experiment: Social interaction (SI) test after social defeat stress (SDS models); type: in vivo, C57BL/6J mice; settings: DSF diet freely for 3 months, then SDS for 10 days; control group SI time significantly decreased (FIG. 11)
Description: To 1 g of an MF diet, 0.8 mg of DSF and 50 mg of sucrose or only 50 mg of sucrose (without DSF) were added to prepare a DSF diet or a control diet, respectively, as a solid diet. C57BL/6J mice were allowed to eat the DSF diet (200 mg/day) freely for 3 months and then exposed to social defeat stress (SDS) for 10 days to create mouse models of depression (SDS models) (Golden S. A. et al., Nat Protoc. Vol. 6, No. 8, pp. 1183-1191, 2011). The SDS models were created by placing a single C57BL/6J mouse in a home cage where a male ICR mouse had been housed for a long period of time and exposing the mouse to physical aggression by the ICR mouse. In this study, the stress exposure was applied for 10 minutes a day in a period of consecutive 10 days. Depressive-like symptoms were evaluated by the social interaction (SI) test (Golden S. A. et al., 2011, supra). An apparatus composed of an open field apparatus (45 cm×45 cm×30 cm) and a mesh cage (8 cm×6 cm×30 cm) placed on one side of the open field apparatus was used to perform the SI test, in which the time (SI time) spent by the C57BL/6J mouse approaching and making contact with the ICR mouse (Target) in the mesh cage during the measurement time (2.5 minutes) was compared with that in the absence of the ICR mouse (Non-target).

[7] = 40 mg/kg, time course 15-120 minutes
[8] = intraperitoneal 20, 40 or 80 mg/kg, 30 minutes after administration, dose-dependent, vs solvent control (FIG. 2)
[9] = oral 40 mg/kg, sixty minutes after administration (FIG. 7)
[10] = intraperitoneal 40 mg/kg, 30 minutes, two mice with no sedative effect (FIG. 6)
[11] = 80 mg/kg, 30 minutes after administration (FIG. 5)
[12] = subcutaneous 1.5 mg/kg, positive control (FIG. 3)

## CCN(CC)C(=S)SSC(=S)N(CC)CC [disulfiram, tetraethylthiuram disulfide]
[1]; Days 4 and 6, p<0.05 vs control diet (FIG. 9A)
  distance traveled to find the platform: shorter
[1]; probe trial on Day 5, p<0.05 vs control diet (FIG. 9B)
  time spent for exploring the platform area at the probe trial: significantly longer
[2]
  time spent exploring the relocated object vs the object remaining at the original location: significantly longer
[3]; 40 mg/kg, tested 15, 30, 60 or 120 minutes after administration, increased from 15 minutes (FIG. 4)
  ratio of time spent in the open arm: significantly increased
[3]; [7]
  effect observed till (time after the administration): 60 min
  time of peak anxiolytic-like effect: 30 min
[3]; disulfiram 40 mg/kg to 80 mg/kg i.p. compared with diazepam 1.5 mg/kg s.c.
  anxiolytic-like effect: comparable to that of diazepam
[3]; [8]
  ratio of open arm entries: significantly increased
  ratio of time spent in the open arm: significantly increased
[4]; vs control diet group (FIG. 10A)
  hyperemotional response (score): significant decreases
[4]; vs control diet group (FIG. 10B)
  hyperactivity (line crossings in 30 seconds): significant decreases
[5]
  secretion of sAPPα: promote secretion of sAPPα
[6]
  SI time in the presence of the Target vs Non-target: any change in SI time was not observed

## copper diethyldithiocarbamate [Cu(DDC)2]
[3]; [9]
  anxiolytic-like effect: confirmed to have an anxiolytic-like effect
  ratio of time spent in the open arm: significantly increased
[3]; oral 40 mg/kg, sixty minutes after administration, not significantly different (FIG. 7)
  ratio of open arm entries: clear tendency to increase

## CCN(CC)C(=S)[S-].CCN(CC)C(=S)[S-].CCN(CC)C(=S)[S-].[Fe+3] [Fe(DDC)3, diethyldithiocarbamic acid ferric salt]
[3]; intraperitoneal 40 mg/kg, 30 minutes (FIG. 6)
  anxiolytic-like effect: confirmed to have an anxiolytic-like effect
[3]; intraperitoneal 40 mg/kg, 30 minutes, observed in three mice of n=5, no exploration
  sedative effect: strong sedative effect
[3]; [10]
  ratio of open arm entries: significantly increased
  ratio of time spent in the open arm: significantly increased

## N#CN [Cyanamide, cyanamide (H2 N—CN)]
[3]; [11]
  anxiolytic-like effect: no anxiolytic-like effect
  ratio of open arm entries: no significant effects
  ratio of time spent in the open arm: no significant effects

## CN1C(=O)CN=C(c2ccccc2)c2cc(Cl)ccc21 [diazepam, Diazepam]
[3]; [12]
  ratio of open arm entries: increased
  ratio of time spent in the open arm: increased
